Experimental findings from patent US20250276996A1, “CATIONICALLY-ENFRAMED HIGH DENSITY AROMATIC PEPTIDES” (Research Foundation of the City University of New York, priority 2022, published 2025) are described below.

Entries after “also recorded” stand apart in the source; their conditions may differ. Non-standard residues stand in square brackets, D forms with d. No end group written: not given here.

For assay [1], the system named is ARPE-19 cells. As to the kind of experiment: Mitochondrial potential in the presence of CCCP (TMRM). Type of assay: cell-based. The note with it: 10 μM of CCCP. As to the method: Effects of peptides on mitochondrial potential in the presence of Carbonyl cyanide m-chlorophenylhydrazone (CCCP): ARPE-19 cells (ATTC-CRL-2302) (5×10^4 cells) were seeded in 35 mm glass dishes in DMEM/F12 medium with 10% FBS for 24 hr. On the day of the experiment, cells were cultured in DMEM/F12 in the presence of different concentrations of biotin-HDAP2 for 60 min (FIG. 17B). Then, cells were incubated with 10 μM CCCP in the presence of 5 nM TMRM, 100 nM Mito View Green, and 10 μg/ml Hoechst 33342 for 15 min at 37° C. Fluorescent images were immediately obtained with a Nikon Eclipse 50i fluorescence microscope (60× objective) using FITC (Mito View Green), Texas Red (TMRM), and DAPI (Hoechst) filters. Images were collected from three independent experiments, using 4-6 random fields for each treatment group, and imaged and analyzed as described for NR.

Assay [2] deals with antimycin-induced scratching. As to the kind of experiment: Topical antimycin-induced scratching. Conditions: 100 μM topical with 200 μM antimycin. In kind it is in vivo, C57BL/6J mice. As to the method: However, antimycin-induced scratching in mice was […] by biotin-free HDAP2. Dermal administration of antimycin, a mitochondrial Complex III irreversible inhibitor, is known to induce ROS formation and oxidative stress in C fibers of sensory neurons, resulting in severe scratching in mice. Biotin-HDAP2 and biotin-free HDAP2 were tested to see if either can inhibit topical antimycin-induced itching in 12 months old C57BL/6J mice. […] Specifically, 200 μM of topical antimycin in methanol induced itching, which was monitored for 60 min. […] Error bars represent SEM (n=3) **P<0.001. Topical administration of 100 μM of biotin-free HDAP2 with antimycin increased scratching by 2.5 fold. Error bars represent SEM (n=3) ***P<0.0001.

Assay [3] deals with MDBK cells. Description: Cell survival in serum-free media (AlamarBlue). In kind it is cell-based, bovine. Conditions: 1 μM, 5 days serum starvation. As to the method: Serum starvation experiments: Biotin-HDAP2's ability to improve cell viability and function following serum starvation was assessed. For all experiments, MDBK cells were seeded in 35 mm cell culture dishes (5×10^4 cells) in DMEM medium with 10% FBS (Fetal Bovine Serum) for 24 hrs and then incubated in serum-free medium with or without biotin-HDAP2 (1 μM) for 5 days to induce cell death. For quantitative measurements, wells were washed to remove dead cells, and then stained with AlamarBlue for 60 min. Quantitative analysis of dye conversion was measured using a fluorescent plate reader (550 ex/580 em) and cell viability was expressed as folds change (increase or decrease) over scrum-starved untreated cells.
Effects of peptides on cell survival in serum-free media: Cell survival in serum starvation conditions was studied in the presence and absence of biotin-HDAP2 using MDBK cells. Cells were plated at a density of 1-2×10^5 cells/well in 96 well plates in DMEM/10% FBS media. The following day, cells were washed and the medium replaced with DMEM serum-free media in the presence or absence of different concentrations of biotin-HDAP2 and incubated for 5 days. Cell viability was assessed using the Resaruzin (Alamar blue) indicator dye. Quantitative analysis of dye conversion was measured using a fluorescent plate reader (ex/em=550/580 nm) and viability was expressed as fold increase over of untreated cells.

Consider `N#CC(C#N)=NNc1cccc(Cl)c1` [CCCP, carbonyl cyanide m-chlorophenylhydrazone, reference compound], for which the “ΔΨm relative to control cells” value in assay [1] was found to be 20%.
Take [dR]FF[dR] [biotin-free HDAP2]: the increase of scratching in assay [2] is reported as 2.5 fold. Also, the “effect on antimycin-induced scratching” value in assay [2] (60 min) is “potentiated”. The “AlamarBlue fluorescence / protection during serum starvation” value in assay [3] was “did not increase AlamarBlue fluorescence; also recorded: does not protect cells during serum starvation”.
